What was measured:
MDA-MB-231 cells = experiment: MTT assay, antiproliferative activity in MDA-MB-231; assay type: cell-based, human; conditions: for in vitro anticancer activity at single concentration: MDA-MB-231, 10μM of each analogue for three days
MCF-7 cells = experiment: MTT assay, antiproliferative activity in MCF-7; assay type: cell-based, human; conditions: MCF-7, 10μM of each analogue for three days
MCF10A cells = experiment: MTT assay with immortalized normal breast cells MCF10A; assay type: cell-based, human; conditions: for killing of normal MCF10A cells: compared with cancerous MCF-7 and MDA-MB-231 cells
eEF1A = assay type: binding, human; conditions: biotinylated compound, MDA-MB-231 cell lysate, neutravidin beads, western blot
[1] = test system: eukaryotic elongation factor 1A1 (eEF1A1); conditions: four rounds of biopanning, 12 phage clones per compound sequenced
eEF1A2 = biological target: T1, eEF1A2 (Homo sapiens, UniProt Q05639); assay type: binding; conditions: biotinylated compounds on SA chip; apparent KDs unreliable
T1 sequence (Q05639 1-463): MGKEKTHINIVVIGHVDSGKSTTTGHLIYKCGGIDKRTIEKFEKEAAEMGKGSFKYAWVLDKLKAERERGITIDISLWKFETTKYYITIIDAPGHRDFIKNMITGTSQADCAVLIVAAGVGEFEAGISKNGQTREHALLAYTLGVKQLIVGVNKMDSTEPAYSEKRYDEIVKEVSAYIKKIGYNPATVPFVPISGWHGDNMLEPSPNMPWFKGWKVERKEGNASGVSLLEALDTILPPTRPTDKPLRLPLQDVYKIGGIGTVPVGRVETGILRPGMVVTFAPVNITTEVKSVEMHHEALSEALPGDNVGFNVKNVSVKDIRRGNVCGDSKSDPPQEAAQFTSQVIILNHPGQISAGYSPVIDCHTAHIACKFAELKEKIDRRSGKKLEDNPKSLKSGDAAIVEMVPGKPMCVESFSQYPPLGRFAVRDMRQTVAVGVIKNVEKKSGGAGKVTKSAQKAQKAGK

protein translation = experiment: 35S-Methionine labeled protein translation assay; assay type: cell-based; conditions: 2, 4 and 8μM for 8 hours
[2] = test system: Akt (Ser473 and Thr308 phosphorylation); experiment: Western blot analysis of Akt phosphorylation in MDA-MB-231 cells; assay type: cell-based, human; conditions: MDA-MB-231, 2μM for 6 hours and 12 hours

Compound | in vitro anticancer activity at single concentration (MDA-MB-231 cells) | in vitro anticancer activity at single concentration (MCF-7 cells) | killing of normal MCF10A cells (MCF10A cells) | binding of eEF1A in pull down (eEF1A) | binding protein recovered from phage clones [1] | decrease in IC50 compared to 10 (MDA-MB-231 cells; MDA-MB-231) [fold] | normal MCF10A cells killed (MCF10A cells; at 50μM) | binding of eEF1A2 (SPR) (eEF1A2) | 35S-methionine incorporation into cellular proteins (protein translation) | phosphorylation of serine 473 and threonine 308 in Akt [2]
CC(C)CNc1nc2cc3c(=O)cc(-c4ccc(C(=O)N[C@@H](Cc5ccccc5)C(N)=O)cc4)oc3cc2n1Cc1ccccc1 [Compound 24] | among the most active compounds | among the most active compounds | killed normal MCF10A cell in a similar manner as cancerous MCF-7 and MDA-MB-213 cells | eEF1A did indeed bind | Eukaryotic elongation factor 1A 1 (eEF1A1) was also recovered | – | – | – | – | –
COc1ccc(Nc2nc3cc4c(=O)cc(-c5ccc(C(=O)N[C@@H](CC(C)C)C(N)=O)cc5)oc4cc3n2[C@H](C)C2CCCCC2)cc1 [Compound 10] | among the most active compounds | among the most active compounds | killed normal MCF10A cell in a similar manner as cancerous MCF-7 and MDA-MB-213 cells | eEF1A did indeed bind | two clones encoded eukaryotic elongation factor 1A1 (eEF1A1) | – | – | – | – | –
CC(C)C[C@H](NC(=O)c1ccc(-c2cc(=O)c3cc([N+](=O)[O-])c(N[C@H](C)C4CCCCC4)cc3o2)cc1)C(N)=O [Compound 39] | – | – | – | – | – | 5 | about 65% | selectively bind to eEF1A2 | decreased ^35S-methionine incorporation into cellular proteins in a dose-dependent manner | able to suppress phosphorylation
